From PMC8443647, “Hybrid derivative of cathelicidin and human beta defensin-2 against Gram-positive bacteria: A novel approach for the treatment of bacterial keratitis” (Scientific Reports, 2021)
Converted amounts (≈) assume the structure as drawn. “And” between values parts separate entries of the source, which are not always exact repeats. Identical values can stand only once. Like-named read-outs stand apart in the source and are kept apart here. Peptide text beside a SMILES is read from it.

How the values were obtained:
[1] = system: S. aureus ATCC 29213; format: cell-based, Staphylococcus aureus; conditions: ATCC 29213, 24 h
From the text: (§1) A range of Gram-positive and Gram-negative laboratory- and clinical-strain bacteria were used for the experiments. These included laboratory-strain methicillin-sensitive S. aureus (MSSA; including SH1000 and ATCC SA29213), laboratory-strain MRSA (ATCC MRSA43300), clinical-strain MRSA (MRSA-OS; an IK isolate), laboratory-strain methicillin-sensitive Staphylococcus epidermidis (MSSE; ATCC SE12228), laboratory invasive-strain P. aeruginosa (PAO1-L), and clinical cytotoxic-strain P. aeruginosa (PA-OS; an IK isolate).
(§2) In vitro antimicrobial efficacy of the antibiotics and designed HDPs was determined using an established MIC assay with broth microdilution method approved by the Clinical and Laboratory Standards Institute (CLSI)[64]. Briefly, the microorganisms were cultured on Tryptone Soya Agar (TSA) and incubated overnight for 18–21 h at 37 °C. Bacterial inoculums were subsequently prepared using the direct colony suspension method. Three to five bacterial colonies were obtained from the agar plate and inoculated into an Eppendorf tube containing 1 ml of cation-adjusted Muller-Hinton broth (caMHB), consisting of 20–25 mg/L calcium ions (Ca^2+) and 10–12.5 mg/L magnesium ions (Mg^2+). The bacterial suspension was adjusted to achieve a turbidity equivalent to 0.1 OD600 or 0.5 MacFarland, containing ~ 1.5 × 10^8 colony-forming unit (CFU)/ml, which was then further diluted in 1:150 in caMHB to reach a final bacterial concentration of ~ 1 × 10^6 colony forming units (CFU)/ml. Each treatment (peptide or antibiotic) was prepared in 1:2 serial dilution in 96-well polypropylene microplates (with a final treatment volume of 50 μl per well), followed by the addition of 50 μl of 1 × 10^6 CFU/ml bacteria into each well (with a final bacterial concentration of 5 × 10^5 CFU/ml).

[2] = system: MRSA ATCC 43300; format: cell-based, Staphylococcus aureus; conditions: ATCC 43300, 24 h
From the text: as §1, §2

[3] = system: MRSA; format: cell-based, Staphylococcus aureus
From the text: as §1, §2

[4] = system: MSSA; format: cell-based, Staphylococcus aureus
From the text: as §1, §2

[5] = system: MRSA-OS; assay: microbe, parasite or virus in culture; format: cell-based, Staphylococcus aureus; conditions: 24 h
From the text: as §1, §2

[6] = system: P. aeruginosa PA-OS; assay: microbe, parasite or virus in culture; format: cell-based; conditions: 24 h
From the text: as §1, §2

[7] = in vitro; format: cell-based, human; conditions: human
Experimental: (§3) Cell viability and cytotoxicity of antibiotics and peptides were determined against human corneal epithelial cells (HCE-2, CRL-11135, ATCC, Manassas, Virginia, USA) using cell-counting-kit-8 (CCK-8) assay (Sigma Aldrich, Merck Life Science UK Limited, Dorset, UK) and lactate dehydrogenase (LDH) assay (ThermoFisher Scientific, UK), respectively, as per manufacturer’s guidelines. HCE-2 cells were cultured and seeded into a 96-well plate at a density of 7.5 × 10^3 cells/well and allowed to attach overnight and grew to 80–90% confluency in keratinocyte serum free medium (KSFM) supplemented with human recombinant epidermal growth factor, bovine pituitary extract, hydrocortisone, and insulin. Once the confluency reached 80–90%, the cells were incubated with treatment for 3 h before OD450 measurement was taken using BMG Clariostar microplate reader (BMG Labtech Ltd., Aylesbury, UK). Appropriate controls were used, including 0.1% Triton X-100 as positive control and KSFM as negative control. Cell viability was calculated using the following formula: [([…]) × 100; I = intensity] and cytotoxicity was calculated using the following formula: [((Itreatment – INC)/(IPC – INC)) × 100].

[8] = system: corneal epithelial wound; conditions: mouse, in vivo
Experimental: The in vivo studies were conducted in two stages, namely the corneal wound healing study (for safety) and BK study (for efficacy), based on previously established protocols[54],[65]. […] The mice were maintained and treated in compliance with the Guide for the Care and Use of Laboratory Animals (National Research Council) and the ARVO statement for the Use of Animals in Ophthalmic and Vision Research. […]
In vivo safety of CaD23 (in 0.03%, 0.05% or 0.1%), and PBS (negative control) was first determined in a mouse corneal epithelial wound healing model. In the absence of in vivo pilot data of our designed HDPs, the sample size was calculated based on a previous study. […]
All mice were randomly allocated to each of the four treatment groups (n = 4 mice/group). […] Corneal epithelial defect was assessed using a cobalt-blue filter-equipped slit-lamp biomicroscopy and photography with staining with topical sodium fluorescein 1% at baseline (immediately post-debridement) and daily up to 3 days post-treatment. Fluorescein-stained images of the corneal wound defect were analyzed using ImageJ software (https://imagej.nih.gov/ij/)[68]. The main outcome measure was the wound size at the end of day 1, 2 and 3 [expressed as % of the original wound size in mean and standard deviation (SD)]. […]

[9] = system: S. epidermidis ATCC 12228; format: cell-based, Staphylococcus epidermidis; conditions: ATCC 12228, 24 h
From the text: as §1
In vitro antimicrobial efficacy of the antibiotics and designed HDPs was determined using an established MIC assay with broth microdilution method approved by the Clinical and Laboratory Standards Institute (CLSI)[64]. Briefly, the microorganisms were cultured on Tryptone Soya Agar (TSA) and incubated overnight for 18–21 h at 37 °C. Bacterial inoculums were subsequently prepared using the direct colony suspension method. Three to five bacterial colonies were obtained from the agar plate and inoculated into an Eppendorf tube containing 1 ml of cation-adjusted Muller-Hinton broth (caMHB), consisting of 20–25 mg/L calcium ions (Ca^2+) and 10–12.5 mg/L magnesium ions (Mg^2+). […]

[10] = Hemolytic assay; format: cell-based; conditions: human
Experimental: (§4) Ethical approval was obtained from the Local Research Ethics Committee of University of Nottingham prior to the experiment (Ref: 176-1812). The experiment was conducted in accordance with the relevant guidelines and regulations. Hemolytic assay was performed according to the previously established protocol. Briefly, 5 ml of fresh human blood was collected from healthy participants with written informed consent, in an EDTA tube and centrifuged for 10 min at 1300g at 10 °C for separation of plasma. The remaining erythrocytes were rinsed and centrifuged further three times in Ca^2+/Mg^2+ free Dulbecco’s phosphate-buffered saline (DPBS). Subsequently, erythrocytes were diluted to 8% v/v in DPBS and incubated with 100 μl of treatment, positive control (1% Triton X-100) and negative control (DPBS), all in 1:1 ratio, for 1 h (final erythrocytes concentration = 4% v/v). After 1 h of incubation, the plate was centrifuged at 500×g for 5 min and 100 μl of supernatant of each well was transferred into a 96-well plate for measurement at OD540. Hemolysis (%) was calculated as [(Itreatment – INC)/(IPC – INC)] × 100.

[11] = system: S. aureus SH1000; assay: microbe, parasite or virus in culture; format: cell-based, Staphylococcus aureus; conditions: Staphylococcus aureus, SH1000, 24 h, caMHB, 24 h, read-out: MIC
From the text: as §1, §2

[12] = system: S. aureus ATCC SA29213; assay: Multipassage antimicrobial resistance (AMR) assay; format: cell-based, Staphylococcus aureus
Experimental: Multipassage AMR assays were performed to evaluate the risk of development of AMR of S. aureus (ATCC SA29213) against CaD23 and amikacin over 10 consecutive passages (days). The assay was conducted in a similar manner of the MIC assay described above. […] This was then further diluted in 1:150 in caMHB to reach a final bacterial concentration of ~ 1 × 10^6 colony forming units (CFU)/ml. […] Development of AMR was defined as ≥ fourfold increase in the MIC level compared to the baseline.

[13] = system: P. aeruginosa PAO1-L; assay: microbe, parasite or virus in culture; format: cell-based; conditions: Pseudomonas aeruginosa, PAO1, 24 h, caMHB, 24 h, read-out: MIC
From the text: as §1, §2

[14] = system: human corneal epithelial cells (HCE-2); assay: cells; format: cell-based; conditions: Homo sapiens, Corneal epithelial cell, 3 h, read-out: IC50 (concentration causing 50% inhibition of cell viability)
Experimental: as §3

[15] = system: human corneal epithelial cells (HCE-2); assay: in vitro; format: cell-based; conditions: human, 3 h, 200 µg/ml
Experimental: as §3

[16] = system: S. aureus (SH1000); assay: Time-kill kinetics assay; format: cell-based, Staphylococcus aureus
Experimental: Time-kill kinetics assay was performed to determine the time-dependent and concentration-dependent in vitro antimicrobial effects of the CaD23 and amikacin, a commonly used topical antibiotics for BK, against 100 μl of ~ 1 × 10^6 CFU/ml of SH1000 (1:1 treatment-bacteria ratio) at various time points, including 0 min (pre-treatment), 15 min, 30 min, 60 min, 2 h, 4 h, and 24 h. At each time point, 10 μl of the treated bacteria was transferred to an Eppendorf tube containing 90 μl of PBS, which was then serially diluted in 1:10 concentration for inoculation on agar plates and incubated overnight for 18–21 h at 37 °C for enumeration of CFU.

[17] = system: fresh human erythrocytes; assay: Hemolytic assay; format: cell-based; conditions: 1 h
Experimental: as §4

CC[C@H](C)[C@H](NC(=O)[C@H](CCCNC(=N)N)NC(=O)[C@H](CCC(N)=O)NC(=O)[C@@H](NC(=O)[C@@H](NC(=O)[C@H](CCCNC(=N)N)NC(=O)[C@@H](N)CCCCN)[C@@H](C)CC)C(C)C)C(=O)N[C@@H](CCCCN)C(=O)N[C@@H](CC(=O)O)C(=O)N[C@@H](Cc1c[nH]c2ccccc12)C(=O)N[C@@H](CC(C)C)C(=O)N[C@@H](CCCNC(=N)N)C(=O)N[C@@H](CCCCN)C(=O)N[C@@H](CC(C)C)C(=O)N[C@@H](CS)C(=O)N[C@@H](CCCCN)C(=O)N[C@@H](CCCCN)C(=O)N[C@@H](Cc1c[nH]c2ccccc12)C(=O)O [CaD23, KRIVQRIKDW LRKLCKKW] (H-KRIVQRIKDWLRKLCKKW-OH; N-terminus and C-terminus assumed) gave an MIC [1] of 50 µg/mL (≈ 20.9 µM), an MIC [2] of 100 µg/mL (≈ 41.7 µM) and an MIC [3] of 25 µg/mL (≈ 10.4 µM). For the same compound, the MIC [4] was 12.5 to 25.0 µg/mL, the MIC ([5]; -OS) was 100 µg/mL and the MIC ([6]; PA-OS) was 50 µg/mL (≈ 20.9 µM). The CC50 at 3 h [7] was over 200 µg/mL, the “Mean wound size (% of original wound size)” value [8] was 28.5 ± 19.9% and the MIC [9] was 5.2 µM (≈ 12.5 µg/mL). The hemolysis at 1 h, 200 µg/ml ([10]; Hmax (%): percentage of hemolysis at 200 µg/ml) was under 10%.

With NCC[C@H](O)C(=O)N[C@@H]1C[C@H](N)[C@@H](O[C@H]2O[C@H](CN)[C@@H](O)[C@H](O)[C@H]2O)[C@H](O)[C@H]1O[C@H]1O[C@H](CO)[C@@H](O)[C@H](N)[C@H]1O [Amikacin, amikacin, reference compound] the MIC ([5]; 150 mM NaCl, caMHB) was 10 µg/mL, the MIC ([5]; 150 mM NaCl, caMHB, read-out: MIC) was 17.1 µM and the MIC ([5]; Staphylococcus aureus, MRSA, 0 mM NaCl, caMHB, read-out: MIC) was 10 µg/mL and 17.1 µM. The MIC ([11]; 0 mM NaCl) was 1.25 µg/mL and 2.13 µM, the MIC ([11]; 150 mM NaCl) was 2.5 µg/mL and 4.27 µM and the “Increase in the MIC after the 2nd passage” value ([12]; 2nd passage) was “fourfold”. The “Increase in the MIC after the 10th passage” value ([12]; 10 consecutive passages (days)) was 32 fold, the “Development of AMR after 10 consecutive passages” value ([12]; AMR defined as ≥ fourfold increase in MIC vs baseline) was “developed significant AMR” and the MIC ([6]; Pseudomonas aeruginosa, 0 mM NaCl, caMHB, read-out: MIC) was 0.63 µg/mL and 1.08 µM. For the same compound, the MIC ([6]; Pseudomonas aeruginosa, 150 mM NaCl, caMHB, read-out: MIC) was 1.25 µg/mL and 2.13 µM, the MIC ([13]; 0 mM NaCl) was 0.63 µg/mL and 1.08 µM and the MIC ([13]; 150 mM NaCl) was 1.25 µg/mL and 2.13 µM. For the same compound, the IC50 [14] was over 200 µg/mL, the CC50 at 3 h [7] was over 200 µg/mL and the “Lmax (%): percentage of cytotoxicity at 200 µg/ml” value [15] was 0.0 (0.1) %. For the same compound, the “Bacterial re-growth at 24 h time-point” value ([16]; CaD23 25 μg/ml, amikacin 10 μg/ml and 25 μg/ml) was “no evidence of bacterial re-growth”, the “Time to complete killing” value ([16]; amikacin 20 μg/ml (8× MIC), caMHB with 150 mM NaCl) was at most 4 h and the “Speed of killing relative to CaD23 (times slower)” value ([16]; amikacin 25 μg/ml (20× MIC) vs CaD23 25 μg/ml (2× MIC)) was 8 times. For the same compound, the “Time to complete killing” value ([16]; amikacin 8× MIC (10 μg/ml), caMHB) was at most 4 h, the “HC50 (concentration causing 50% hemolysis)” value [17] was over 200 µg/mL and the hemolysis at 1 h, 200 µg/ml ([10]; fresh human erythrocytes (4% v/v), human erythrocytes, 200 µg/ml, 1 h, mean (SD), read-out: Hmax (%): percentage of hemolysis at 200 µg/ml) was 0%.
